Experimental data reported in patent US6737383B1, “Herbicidal oxadiazolidines” (priority 1999, dated 2004).

Key:
blackgrass = test: Test B pre/postemergence blackgrass; type: in vivo, Alopecurus myosuroides
Outline: (§1)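 Herbicidal effect was estimated by eye on a ten-point control scale after plants spent twelve to sixteen days in a greenhouse following soil or foliar treatment. Foliar sprays targeted plants at one to four leaves; all doses were formulated in a non-phytotoxic solvent with surfactant.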

surinam grass = test: Test B pre/postemergence surinam grass; type: in vivo, Brachiaria decumbens
Outline: as §1

cocklebur = test: Test B pre/postemergence cocklebur; type: in vivo, Xanthium strumarium
Outline: as §1

corn = test: Test B pre/postemergence corn; type: in vivo, Zea mays
Outline: as §1

crabgrass = test: Test B pre/postemergence crabgrass; type: in vivo, Digitaria sanguinalis
Outline: as §1

giant foxtail = test: Test B pre/postemergence giant foxtail; type: in vivo, Setaria faberii
Outline: as §1

morningglory = test: Test B pre/postemergence morningglory; type: in vivo, Ipomoea hederacea; settings: for Plant response rating, Morningglory: scale of 0 to 10 where 0 is no effect and 10 is complete control
Outline: as §1

pigweed = test: Test B pre/postemergence pigweed; type: in vivo, Amaranthus retroflexus; settings: for Plant response rating, Redroot pigweed: scale of 0 to 10 where 0 is no effect and 10 is complete control
Outline: as §1

rape = test: Test B pre/postemergence rape; type: in vivo, Brassica napus; settings: for Plant response rating, Rape: scale of 0 to 10 where 0 is no effect and 10 is complete control
Outline: as §1

soybean = test: Test B pre/postemergence soybean; type: in vivo, Glycine max; settings: for Plant response rating, Soybean: scale of 0 to 10 where 0 is no effect and 10 is complete control
Outline: as §1

sugar beet = test: Test B pre/postemergence sugar beet; type: in vivo, Beta vulgaris; settings: for Plant response rating, Sugarbeets: scale of 0 to 10 where 0 is no effect and 10 is complete control
Outline: as §1

velvetleaf = test: Test B pre/postemergence velvetleaf; type: in vivo, Abutilon theophrasti; settings: for Plant response rating, Velvetleaf: scale of 0 to 10 where 0 is no effect and 10 is complete control
Outline: as §1

wild oat = test: Test B pre/postemergence wild oat; type: in vivo, Avena fatua; settings: for Plant response rating, Wild oats: scale of 0 to 10 where 0 is no effect and 10 is complete control
Outline: as §1

purple nutsedge = test: Test B pre/postemergence purple nutsedge; type: in vivo, Cyperus rotundus; settings: for Plant response rating, Nutsedge: scale of 0 to 10 where 0 is no effect and 10 is complete control
Outline: as §1

rice = test: Test B flood test rice; type: in vivo, Oryza sativa
Outline: (§2)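 Each value is a visual injury score relative to controls, with 10 meaning complete control and 0 no effect. Evaluation took place twelve to sixteen days after the 2-leaf-stage plants were treated and kept in the greenhouse.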

duck salad = test: Test B flood test duck salad; type: in vivo, Heteranthera limosa
Outline: as §2

[1] = Postemergence, Rate 250 g/ha, scale 0 to 10
[2] = Postemergence, Rate 500 g/ha, scale of 0 to 10 where 0 is no effect and 10 is complete control
[3] = Preemergence, Rate 62 g/ha, scale of 0 to 10 where 0 is no effect and 10 is complete control
[4] = Preemergence, Rate 125 g/ha, scale of 0 to 10 where 0 is no effect and 10 is complete control
[5] = Preemergence, Rate 250 g/ha, scale 0 to 10, 0 is no effect, 10 is complete control
[6] = Rate 62 g/ha, Postemergence, scale 0 to 10 (0 no effect, 10 complete control)
[7] = Rate 125 g/ha, Postemergence, scale 0 to 10, 0 is no effect, 10 is complete control
[8] = Preemergence, Rate 500 g/ha, scale 0 to 10, 0 is no effect, 10 is complete control
[9] = Rate 62 g/ha, flood test species, Pre-emergence, visual evaluation after twelve to sixteen days
[10] = Rate 125 g/ha, under heading Pre-emergence, flood test species, visual evaluation after twelve to sixteen days
[11] = Rate 250 g/ha, Pre-emergence (flood test species), scale 0 to 10, 0 is no effect, 10 is complete control
[12] = Rate 500 g/ha, Pre-emergence, flood test species, scale 0 to 10 (0 no effect, 10 complete control)

CC(C)N(C(=O)n1oc(=O)n(CO)c1=O)c1ccc(F)cc1 [Compound 470]
1: Plant response rating, Crabgrass (crabgrass; [3]) | Soybean plant response rating (soybean; [1])
6: B. signalgrass plant response rating (surinam grass; [8])
8: Crabgrass plant response rating (crabgrass; [5])
9: Crabgrass plant response rating (crabgrass; [8])
3: Giant foxtail plant response rating (giant foxtail; [8]) | Wild oats plant response rating (wild oat; [8])
4: B. signalgrass plant response rating (surinam grass; [5])
0: Blackgrass plant response rating (blackgrass; [1]) | Blackgrass plant response rating (blackgrass; [2]) | Plant response rating, Blackgrass (blackgrass; [3]) | Plant response rating, Blackgrass (blackgrass; [4]) | Blackgrass plant response rating (blackgrass; [6]) | Blackgrass plant response rating (blackgrass; [7]) | B. signalgrass plant response rating (surinam grass; Postemergence, Rate 250 g/ha, scale 0 to 10, 0 no effect, 10 complete control) | B. signalgrass plant response rating (surinam grass; [2]) | Plant response rating, B. signalgrass (surinam grass; [3]) | Plant response rating, B. signalgrass (surinam grass; [4]) | B. signalgrass plant response rating (surinam grass; [6]) | B. signalgrass plant response rating (surinam grass; [7]) | Cocklebur plant response rating (cocklebur; [1]) | Cocklebur plant response rating (cocklebur; [2]) | Plant response rating, Cocklebur (cocklebur; [3]) | Plant response rating, Cocklebur (cocklebur; [4]) | Cocklebur plant response rating (cocklebur; [5]) | Cocklebur plant response rating (cocklebur; [8]) | Cocklebur plant response rating (cocklebur; [6]) | Cocklebur plant response rating (cocklebur; [7]) | Corn plant response rating (corn; [1]) | Corn plant response rating (corn; [2]) | Plant response rating, Corn (corn; [3]) | Plant response rating, Corn (corn; [4]) | Corn plant response rating (corn; [5]) | Corn plant response rating (corn; [8]) | Corn plant response rating (corn; [6]) | Corn plant response rating (corn; [7]) | Crabgrass plant response rating (crabgrass; [1]) | Crabgrass plant response rating (crabgrass; [2]) | Crabgrass plant response rating (crabgrass; [6]) | Crabgrass plant response rating (crabgrass; [7]) | Giant foxtail plant response rating (giant foxtail; [1]) | Giant foxtail plant response rating (giant foxtail; [2]) | Plant response rating, Giant foxtail (giant foxtail; [3]) | Plant response rating, Giant foxtail (giant foxtail; [4]) | Giant foxtail plant response rating (giant foxtail; [5]) | Giant foxtail plant response rating (giant foxtail; [6]) | Giant foxtail plant response rating (giant foxtail; [7]) | Morningglory plant response rating (morningglory; [1]) | Plant response rating, Morningglory (morningglory; Preemergence, Rate 62 g/ha) | Plant response rating, Morningglory (morningglory; Preemergence, Rate 125 g/ha) | Morningglory plant response rating (morningglory; [5]) | Morningglory plant response rating (morningglory; [8]) | Morningglory plant response rating (morningglory; [6]) | Morningglory plant response rating (morningglory; [7]) | Redroot pigweed plant response rating (pigweed; [1]) | Plant response rating, Redroot pigweed (pigweed; Preemergence, Rate 62 g/ha) | Plant response rating, Redroot pigweed (pigweed; Preemergence, Rate 125 g/ha) | Redroot pigweed plant response rating (pigweed; [5]) | Redroot pigweed plant response rating (pigweed; [8]) | Redroot pigweed plant response rating (pigweed; [6]) | Redroot pigweed plant response rating (pigweed; [7]) | Rape plant response rating (rape; [1]) | Plant response rating, Rape (rape; Preemergence, Rate 62 g/ha) | Plant response rating, Rape (rape; Preemergence, Rate 125 g/ha) | Rape plant response rating (rape; [5]) | Rape plant response rating (rape; [8]) | Rape plant response rating (rape; [6]) | Rape plant response rating (rape; [7]) | Plant response rating, Soybean (soybean; Preemergence, Rate 62 g/ha) | Plant response rating, Soybean (soybean; Preemergence, Rate 125 g/ha) | Soybean plant response rating (soybean; [5]) | Soybean plant response rating (soybean; [8]) | Soybean plant response rating (soybean; [6]) | Soybean plant response rating (soybean; [7]) | Sugarbeets plant response rating (sugar beet; [1]) | Plant response rating, Sugarbeets (sugar beet; Preemergence, Rate 62 g/ha) | Plant response rating, Sugarbeets (sugar beet; Preemergence, Rate 125 g/ha) | Sugarbeets plant response rating (sugar beet; [5]) | Sugarbeets plant response rating (sugar beet; [8]) | Sugarbeets plant response rating (sugar beet; [6]) | Sugarbeets plant response rating (sugar beet; [7]) | Velvetleaf plant response rating (velvetleaf; [1]) | Plant response rating, Velvetleaf (velvetleaf; Preemergence, Rate 62 g/ha) | Plant response rating, Velvetleaf (velvetleaf; Preemergence, Rate 125 g/ha) | Velvetleaf plant response rating (velvetleaf; [5]) | Velvetleaf plant response rating (velvetleaf; [8]) | Velvetleaf plant response rating (velvetleaf; [6]) | Velvetleaf plant response rating (velvetleaf; [7]) | Wild oats plant response rating (wild oat; [1]) | Plant response rating, Wild oats (wild oat; Preemergence, Rate 62 g/ha) | Plant response rating, Wild oats (wild oat; Preemergence, Rate 125 g/ha) | Wild oats plant response rating (wild oat; [5]) | Wild oats plant response rating (wild oat; [6]) | Wild oats plant response rating (wild oat; [7]) | Nutsedge plant response rating (purple nutsedge; [1]) | Plant response rating, Nutsedge (purple nutsedge; Preemergence, Rate 62 g/ha) | Plant response rating, Nutsedge (purple nutsedge; Preemergence, Rate 125 g/ha) | Nutsedge plant response rating (purple nutsedge; [5]) | Nutsedge plant response rating (purple nutsedge; [8]) | Nutsedge plant response rating (purple nutsedge; [6]) | Nutsedge plant response rating (purple nutsedge; [7]) | Plant response rating, Rice (0 to 10 scale, 0 is no effect, 10 is complete control) (rice; [9]) | Rice plant response rating (0 to 10 scale, 0 is no effect, 10 is complete control) (rice; [10]) | Rice plant response rating (rice; [11]) | Rice plant response rating (rice; [12]) | Plant response rating, Ducksalad (0 to 10 scale, 0 is no effect, 10 is complete control) (duck salad; [9]) | Ducksalad plant response rating (0 to 10 scale, 0 is no effect, 10 is complete control) (duck salad; [10]) | Ducksalad plant response rating (duck salad; [11]) | Ducksalad plant response rating (duck salad; [12])
7: Blackgrass plant response rating (blackgrass; [5]) | Plant response rating, Crabgrass (crabgrass; [4])
